# Source: US20070190129A1, “Sustained release dosage forms of ziprasidone” (Pfizer Inc., priority 2003, published 2007)
# Counter-ions that a name gives are not always drawn. Like-named read-outs stand apart in the source and are kept apart here.
# What was measured:
# [1] = In vitro membrane permeation test; assay type: physicochemical; details: for Concentration (permeate solution): feed MFD solution, 100 μgA/mL if all dissolved, 37° C.
# Description: The ziprasidone coated crystals were evaluated in vitro using a membrane permeation test. An Accurel® PP 1E microporous polypropylene membrane was obtained from Membrana GmbH (Wuppertal, Germany). The membrane was washed in isopropyl alcohol and rinsed in methanol in a sonicating bath for 1 minute at ambient temperature, and then allowed to air dry at ambient temperature. The feed side of the membrane was then plasma-treated to render it hydrophilic by placing a sample of the membrane in a plasma chamber. The atmosphere of the plasma chamber was saturated with water vapor at a pressure of 550 mtorr. A plasma was then generated using radio frequency (RF) power inductively coupled into the chamber via annular electrodes at a power setting of 50 watts for 45 seconds. The contact angle of a drop of water placed on the surface of the plasma-treated membrane was about 40°. The contact angle of a drop of water placed on the permeate side of the same membrane was greater than about 110°.
# A permeate reservoir was formed by gluing a sample of the plasma-treated membrane to a glass tube having an inside diameter of about 1 inch (2.54 cm) using an epoxy-based glue (LOCTITE® E-30CL HYSOL®) from Henkel Loctite Corp, Rocky Hill, Conn.). The feed-side of the membrane was oriented so that it was on the outside of the permeate reservoir, while the permeate-side of the membrane was oriented so that it was on the inside of the reservoir. The effective membrane area of the membrane on the permeate reservoir was about 4.9 cm^2. The permeate reservoir was placed into a glass feed reservoir. The feed reservoir was equipped with a magnetic stir bar and the reservoir was placed on a stir plate and the stir rate was set to 100 rpm during the test. The apparatus was placed into a chamber maintained at 37° C. for the duration of the test. Further details of the test apparatus and protocols are presented in co-pending U.S. patent application Ser. No. 60/557,897, entitled “Method and Device for Evaluation of Pharmaceutical Compositions,” filed Mar. 30, 2004 (attorney Docket No. PC25968), incorporated herein by reference.
# To form the feed solution, a 1.39 mg sample of the coated crystals was weighed into the feed reservoir. To this was added 5 mL of MFD solution previously described, consisting of PBS solution containing 7.3 mM sodium taurocholic acid and 1.4 mM of 1-palmitoyl-2-oleyl-sn-glycero-3-phospocholine (0.5% NaTC/POPC). The concentration of ziprasidone in the feed solution, would have been 100 μgA/mL, if all of the ziprasidone had dissolved. The feed solution was mixed using a vortex mixer for 1 minute. Before the membrane contacted the feed solution, 5 mL of 60 wt% decenol in decane was placed into the permeate reservoir. Time zero in the test was the membrane was placed in contact with the feed solution. A […] aliquot of the permeate solution was collected at the times indicated. Samples were then diluted in […] IPA and analyzed using HPLC.
# As a control, the membrane test was repeated using a 0.5-mg sample of crystalline ziprasidone alone, so that the concentration of drug would have been 100 μg/mL, if all of the drug had dissolved.
# The maximum flux of drug across the membrane (in units of mgA/cm^2-min) was determined by performing a least-squares fit to the data in Table 3 from 0 to 60 minutes to obtain the slope, multiplying the slope by the permeate volume (5 mL), and dividing by the membrane area (4.9 cm^2).
# physchem = assay: physchem
# Text: To achieve efficacious blood levels over long periods of time, the sustained release dosage form should release ziprasidone to the gastrointestinal tract in a manner that allows ziprasidone to be absorbed for a sustained length of time. However, formulating ziprasidone into a sustained release dosage form presents a number of problems. […] Such low solubility at intestinal pH inhibits absorption of ziprasidone in the intestines.
# In one embodiment, the solubility-improved form of ziprasidone is a high solubility salt form. It is known that some low-solubility drugs may be formulated in highly soluble salt forms that provide temporary improvements in the concentration of the drug in a use environment relative to another salt form of the drug.
# [2] = Microcentrifuge dissolution test in MFD solution; assay type: physicochemical; set-up: AUC: concentration or dose not given beside the values; details: for AUC / Dissolved Ziprasidone Concentration: MFD solution pH 6.5, 37° C.; for Dissolved Ziprasidone Concentration: 200 μgA/mL if all dissolved
# Description: The tests were run in duplicate. The tubes were placed in a 37° C. temperature-controlled chamber, and 1.8 mL MFD solution at pH 6.5 and 290 mOsm/kg was added to each respective tube. The samples were quickly mixed using a vortex mixer for about 60 seconds. The samples were centrifuged at 13,000 G at 37° C. for 1 minute prior to collecting a sample. The resulting supernatant solution was then sampled and diluted 1:5 (by volume) with methanol. Samples were analyzed by high-performance liquid chromatography (HPLC) at a UV absorbance of 315 nm using a Zorbax RxC8 Reliance column and a mobile phase consisting of 55% (50 mM potassium dihydrogen phosphate, pH 6.5)/45% acetonitrile. Drug concentration was calculated by comparing UV absorbance of samples to the absorbance of drug standards. The contents of each tube were mixed on the vortex mixer and allowed to stand undisturbed at 37° C. until the next sample was taken. Samples were collected at 4, 10, 20, 40, 90, and 1200 minutes following administration to the MFD solution.
# A similar test was performed with the crystalline ziprasidone free base as a control, and a sufficient amount of material was added so that the concentration of compound would have been 200 μgA/mL, if all of the ziprasidone had dissolved.
# The concentration of ziprasidone obtained in these tests were used to determine the maximum dissolved concentration of ziprasidone (“MDC90”) and the area under the concentration-versus time (“AUC90”) during the initial ninety minutes.
# D2 receptor = D2 receptor (Homo sapiens, UniProt P14416); details: cited from earlier work
# [3] = with food versus without; cited from earlier work
# [4] = at the pH of the saturated solution
# [5] = initial ninety minutes, MFD solution pH 6.5
# Chain of D2 receptor (P14416 whole entry): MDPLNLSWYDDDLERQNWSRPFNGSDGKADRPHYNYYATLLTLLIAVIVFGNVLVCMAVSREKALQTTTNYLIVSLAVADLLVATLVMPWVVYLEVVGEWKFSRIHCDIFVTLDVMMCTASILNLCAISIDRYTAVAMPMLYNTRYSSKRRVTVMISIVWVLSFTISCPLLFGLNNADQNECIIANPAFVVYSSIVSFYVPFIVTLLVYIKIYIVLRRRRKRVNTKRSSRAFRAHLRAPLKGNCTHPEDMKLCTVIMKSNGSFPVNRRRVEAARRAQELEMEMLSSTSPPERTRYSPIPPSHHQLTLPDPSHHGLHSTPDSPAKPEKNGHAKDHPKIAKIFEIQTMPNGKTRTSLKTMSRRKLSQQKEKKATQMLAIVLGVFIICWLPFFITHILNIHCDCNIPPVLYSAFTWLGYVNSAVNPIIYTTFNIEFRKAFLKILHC
compound,measurement,setting,value
Cl.O=C1Cc2cc(CCN3CCN(c4nsc5ccccc45)CC3)c(Cl)cc2N1 [Crystalline Ziprasidone HCl],Concentration (permeate solution),[1]; 0 min,0.0 μgA/mL
same,Concentration (permeate solution),[1]; 20 min,5.2 μgA/mL
same,Concentration (permeate solution),[1]; 40 min,8.1 μgA/mL
same,Concentration (permeate solution),[1]; 60 min,10.0 μgA/mL
same,Concentration (permeate solution),[1]; 90 min,11.4 μgA/mL
same,Concentration (permeate solution),[1]; 120 min,12.9 μgA/mL
same,Concentration (permeate solution),[1]; 180 min,18.1 μgA/mL
same,Concentration (permeate solution),[1]; 245 min,20.9 μgA/mL
same,Concentration (permeate solution),[1]; 360 min,22.6 μgA/mL
same,Maximum flux of Ziprasidone,"[1]; least-squares fit 0 to 60 minutes, permeate volume 5 mL, membrane area 4.9 cm^2",0.16 µgA/cm²·min
O=C(O)c1ccccc1O [Salicylate],Aqueous Solubility,physchem,58 µg/mL
same,pH of Saturated Solution,physchem,5.5
"O=C1Cc2cc(CCN3CCN(c4nsc5ccccc45)CC3)c(Cl)cc2N1 [Ziprasidone hydrochloride monohydrate, ziprasidone hydrochloride monohydrate]",AUC90 (area under the concentration-versus time),"[2]; initial ninety minutes, MFD solution pH 6.5, hydrochloride monohydrate","1,700 min*μgA/mL"
same,MDC90 (maximum dissolved concentration of ziprasidone),[2]; pH 6.5,22 μgA/mL
"O=C1Cc2cc(CCN3CCN(c4nsc5ccccc45)CC3)c(Cl)cc2N1 [ziprasidone, 5-[2-[4-(1,2-benzisothiazol-3-yl)-1-piperazinyl]ethyl]-6-chloro-1,2-dihydro-2H-indol-2-one]",D2 occupancy,D2 receptor; blood ziprasidone concentration 16 ng/ml,approximately 50%
same,D2 occupancy,D2 receptor; blood ziprasidone concentration 30 ng/ml,approximately 65%
same,D2 occupancy,D2 receptor; blood ziprasidone concentration 50 ng/ml,approximately 75%
same,absorption in the presence of food,[3],increased up to two-fold
same,pH of Saturated Solution,physchem,9.8
same,solubility,"physchem; pH 6.5, aqueous buffer",~0.2 µg/mL
same,solubility,"physchem; pH 9.8, water",0.2 µg/mL
same,AUC90 (area under the concentration-versus time),"[2]; initial ninety minutes, MFD solution pH 6.5, listed as Ziprasidone free base",120 min*μgA/mL
same,MDC90 (maximum dissolved concentration of ziprasidone),[2]; pH 6.5,2 μgA/mL
Fumarate,Aqueous Solubility,physchem,2000 µg/mL
same,pH of Saturated Solution,physchem,2.5
Maleate,Aqueous Solubility,physchem,118 µg/mL
same,pH of Saturated Solution,physchem,4.3
Phosphate,pH of Saturated Solution,physchem,2.3
same,Aqueous Solubility,physchem; [4],37 µg/mL
Tosylate,pH of Saturated Solution,physchem,6.0
same,Aqueous Solubility,physchem; [4],64 µg/mL
ziprasidone mesylate trihydrate,AUC,[2]; 0 min,0 min-μgA/mL
same,Dissolved Ziprasidone Concentration,[2]; 0 min,0 μgA/mL
same,AUC,[2]; 4 min,110 min-μgA/mL
same,Dissolved Ziprasidone Concentration,[2]; 4 min,55 μgA/mL
same,AUC,[2]; 10 min,380 min-μgA/mL
same,Dissolved Ziprasidone Concentration,[2]; 10 min,33 μgA/mL
same,AUC,[2]; 20 min,640 min-μgA/mL
same,Dissolved Ziprasidone Concentration,[2]; 20 min,20 μgA/mL
same,AUC,[2]; 40 min,970 min-μgA/mL
same,Dissolved Ziprasidone Concentration,[2]; 40 min,13 μgA/mL
same,AUC,[2]; 90 min,"1,600 min-μgA/mL"
same,Dissolved Ziprasidone Concentration,[2]; 90 min,11 μgA/mL
same,AUC,[2]; 1200 min,"11,200 min-μgA/mL"
same,Dissolved Ziprasidone Concentration,[2]; 1200 min,6 μgA/mL
same,AUC90 relative to that provided by the free base,[2]; MFD solution pH 6.5,13 fold
same,MDC90 relative to that provided by the free base,[2]; MFD solution pH 6.5,27 fold
same,AUC90 (area under the concentration-versus time),[2]; [5],"1,600 min*μgA/mL"
same,MDC90 (maximum dissolved concentration of ziprasidone),[2]; [5],55 μgA/mL
